How the values were obtained:
3T3-L1 adipocytes = experiment: Glucose uptake enhancing action (in vitro), 3H-2-deoxyglucose uptake in 3T3-L1 adipocytes; assay type: cell-based; conditions: 10 μM test compound for 72 hours, insulin added, P<0.001
Description: Preadipocyte cell line 3T3-L1 was purchased from the American Type Culture Collection (ATCC). The 3T3-L1 cells were plated onto a 24-well, collagen-coated plate and cultured to saturation in growth medium (DMEM, 25 mM glucose, 10% FCS, 100 u/ml penicillin, 0.1 mg/ml streptomycin) under conditions of 37° C. and 5% CO2. Five days after cell proliferation had reached a saturated state, the medium was replaced with medium (DMEM, 25 mM glucose, 10% FCS, 100 u/ml penicillin, 0.1 mg/ml streptomycin) to which had been added 1 μM insulin, 0.5 mM 3-isobutyl-1-methylxanthine and 1 μM dexamethazone to initiate adipocyte differentiation. Two days later, the medium was replaced with growth medium containing 1 μM insulin followed by additionally culturing the cells for 2 days. Subsequently, the medium was replaced with fresh growth medium every 3 days, and the 3T3-L1 adipocytes were prepared on day 10 after the start of differentiation. […]
Measurement of glucose uptake was carried out in the manner described below. […] 160 μl of the cell lysate were mixed with 4 ml of Hionic Fluor (Perkin-Elmer) liquid scintillation counter cocktail followed by measurement of the radioactivity in the cell lysate with a liquid scintillation counter (Packard). The determined radioactivity of the ^3H-labeled was used as an indicator of the amount of glucose taken up into the cells.

C57BL/ksj-db/db mice [1] = experiment: Blood glucose levels after administration of pravastatin in feed, C57BL/ksj-db/db mice; assay type: in vivo, mouse; conditions: pravastatin mixed in feed (0.03% and 0.06% wt/wt), dose group, non-dose group 633 mg/dl
Description: (§1) C57BL/ksj-db/db mice (male, age 5 weeks) and KKAy mice (female, age 4 weeks) were purchased from Clea Japan, and used in the test after acclimating to the test environment for 1 week. The mice were housed 5 animals to a cage and given unrestricted access to feed (F2, Funabashi Farm) and water.
(§2) The body weights of the animals were measured and blood samples were collected on the day the test started, and the animals were divided into two groups of 5 animals per cage based on their body weights and blood glucose levels. Blood samples were collected at the start of the test and days 4, 7 and 14 after the start of the test in the case of the C57BL/ksj-db/db mice, and at the start of the test and on days 4, 7, 14 and 28 after the start of the test in the case of the KKAy mice. Blood samples were collected from the tail vein in an amount equal to one heparinized capillary tube.
(§3) Pravastatin powder was added to the F2 powder to 0.03% and 0.06% (wt/wt), uniformly mixed and provided to the animals in individual cages. The amount of feed and general behaviour were checked at least once a day.
(§4) Blood glucose levels were measured on the days when blood samples were collected.

KKAy mice = experiment: Blood glucose levels after administration of pravastatin in feed, KKAy mice; assay type: in vivo, mouse; conditions: pravastatin mixed in feed (0.03% and 0.06% wt/wt), dose group, non-dose group 521 mg/dl
Description: as §1, §2, §3, §4

C57BL/ksj-db/db mice [2] = experiment: Insulin tolerance test using pravastatin-dosed mice; assay type: in vivo, mouse; conditions: pravastatin in feed for 2 weeks, 60 minutes after insulin 1 u/kg i.p., non-dose group 411 mg/dl
Description: (§5) A group administered with pravastatin by mixing in feed for 2 weeks and a non-dosed group of C57BL/ksj-db/db mice (n=5) were fasted for 2 hours. After measuring the body weight of each animal, insulin (Humalin, Lilly) was administered intraperitoneally at 1 u/kg, and blood samples were collected from the tail vein immediately before the start of administration and at 30, 60, 90 and 120 minutes after the start of administration followed by measurement of blood glucose levels.

C57BL/ksj-db/db mice [3] = experiment: Glucose tolerance test using pravastatin-dosed mice; assay type: in vivo, mouse; conditions: pravastatin in feed for 2 weeks, 60 minutes after administration (glucose 2 g/kg i.p.), non-dose group 517 mg/dl
Description: as §5, with “16 hours starting on the day before the start of the test.” for “2 hours.”, “glucose solution ([…])” for “insulin (Humalin, Lilly)”, “to 2 g/kg,” for “at 1 u/kg,”

[4] = system: C57BL/6J mouse adipocytes; experiment: Glucose uptake test using isolated adipocytes from pravastatin-dosed C57BL/6J mice; assay type: in vivo; conditions: isolated adipocytes from pravastatin-dosed C57BL/6J mice (normal mice), insulin, 3H-2-deoxyglucose
Description: (§6) • (i) Epididymal adipose tissue was excised from a group administered with pravastatin for 1 week and a non-dosed group of C57BL/ksj-db/db mice (n=5). The excised adipose tissue was handled under conditions of 37° C. at all times. The adipose tissue was cut into small pieces with a scissors, followed by the addition of medium (DMEM, 1 mM sodium pyruvate, 25 mM HEPES pH 7.4, 0.1% BSA, 100 u/ml penicillin, 0.1 mg/ml streptomycin) containing 1 mg/ml of collagenase I (Worshington), and shaking at 37° C. and 80 rpm. Following the reaction, 2.5 volumes of the aforementioned medium were added, the adipocytes were screened out by passing the cell suspension through a 260 μm mesh sieve, and again passed through a 100 μm mesh sieve to prepare an adipocyte suspension.
(§7) An adipocyte suspension was prepared for C57BL/6J mice (normal mice) in the same manner as described above. • (ii) The glucose uptake test was carried out in the manner as described below. […] After cutting out the oil layer of the upper layer containing adipocytes with a knife, it was transferred to a glass vial containing 4 ml of Hionic Fluor (Perkin-Elmer) liquid scintillation counter cocktail followed by measurement of specific radioactivity. The amount of measured radioactivity of the ^3H-2-deoxyglucose was used as an indicator of the amount of glucose taken up by the cells. […]

[5] = system: C57BL/ksj-db/db mouse adipocytes; experiment: Glucose uptake test using isolated adipocytes from pravastatin-dosed C57BL/ksj-db/db mice; assay type: in vivo; conditions: isolated epididymal adipocytes from C57BL/ksj-db/db mice dosed with pravastatin for 1 week, insulin, 3H-2-deoxyglucose
Description: as §6, §7

CC[C@H](C)C(=O)O[C@H]1C[C@H](O)C=C2C=C[C@H](C)[C@H](CC[C@@H](O)C[C@@H](O)CC(=O)O)[C@H]21 [pravastatin, (+)-(3R,5R)-3,5-dihydroxy-7-[(1S,2S,6S,8S,8aR)-6-hydroxy-2-methyl-8-[(S)-2-methylbutyryloxy]-1,2,6,7,8,8a-hexahydro-1-naphthyl]heptanoic acid]
amount of glucose uptake into the cells relative to control group (3T3-L1 adipocytes): 1.9 times | blood glucose level (C57BL/ksj-db/db mice [1]): 438 mg/dL | blood glucose level (KKAy mice): 351 mg/dL | blood glucose level in insulin tolerance test (C57BL/ksj-db/db mice [2]): 324 mg/dL | blood glucose level in glucose tolerance test (C57BL/ksj-db/db mice [3]): 342 mg/dL | amount of glucose uptake by dose group relative to non-dose group [4]: 1.4 times | amount of glucose uptake by dose group relative to non-dose group [5]: 2.0 times
